Laboratory results: paper PMC3206020, “Analogous Mechanisms of Resistance to Benzothiazinones and Dinitrobenzamides in Mycobacterium smegmatis” (PLoS ONE, 2011)

What was measured:
[1] = biological target: T1, NfnB (Mycolicibacterium smegmatis, UniProt A0R6D0); experiment: LC/MS/MS detection of conversion of DNB1 to its hydroxylamine by purified NfnB; format: biochemical
T1 construct: purified NfnB protein

[2] = biological target: T2, DprE1 (MSMEG_6382) (Mycolicibacterium smegmatis, UniProt A0R607); experiment: steady-state fluorescence titration (enzyme-bound FAD fluorescence); format: binding
T2 construct: recombinant DprE1 expressed as N-terminal six-histidine and thioredoxin fusion (pET-32b), digested with PreScission Protease

| Structure (SMILES) | LC/MS/MS detection of conversion of DNB1 to its hydroxylamine by purified NfnB [1] | Kd [2] |
| --- | --- | --- |
| COc1ccc(OCCNC(=O)c2cc([N+](=O)[O-])cc([N+](=O)[O-])c2)cc1 [DNB1, N-(2-(4-methoxyphenoxy)ethyl)-3,5-dinitrobenzamide] | NfnB was able to convert DNB1 into the corresponding hydroxyl amine-derivative in the presence of NADPH | 7.3 ± 0.8 µM |
| O=C(NCCOCc1cccc(Cl)c1)c1cc([N+](=O)[O-])cc([N+](=O)[O-])c1 [DNB3, N-(2-(3-chlorobenzyloxy)ethyl)-3,5-dinitrobenzamide] |  | 1.8 ± 0.1 µM |
